≈ marks a conversion by molar mass, not a printed value.
Key:
Type in all cases: cell-based
[1] = test system: Acinetobacter baumanii/haemolyticus: Multidrug-resistant clinical isolate (AB-3167); test: MIC determination (CLSI), AB-3167; conditions: for MIC: Acinetobacter baumannii, Table 3, read-out: AB-3167 MIC
Experimental: (§1) The in vitro antibacterial activity of compounds described in the Examples was evaluated by minimum inhibitory concentration (MIC) testing according to Clinical and Laboratory Standards Institute (CLSI, formerly NCCLS) guidelines. See: Clinical and Laboratory Standards Institute. Methods for Dilution Antimicrobial Susceptibility Tests for Bacteria that Grow Aerobically; Approved Standard-Seventh Edition. CLSI document M7-A7 [ISBN 1-56238-587-9]. Clinical and Laboratory Standards Institute, 940 West Valley Road, Suite 1400, Wayne, Pa. 19087-1898 USA, 2006; also Clinical and Laboratory Standards Institute. Performance Standards for Antimicrobial Susceptibility Testing; Eighteenth Informational Supplement. CLSI document M100-S18 [ISBN1-56238-653-0]. Clinical and Laboratory Standards Institute.
(§2) The following bacterial strains were used in these MIC determinations:
2) Acinetobacter baumanii/haemolyticus: Multidrug-resistant clinical isolate labeled as AB-3167 in Tables 1, 2 and 3;

[2] = test system: Escherichia coli EC-1: VOGEL, mouse virulent; test: MIC determination (CLSI), EC-1; conditions: for MIC: Escherichia coli, read-out: EC-1 MIC
Experimental: as §1, §2
3) Escherichia coli EC-1: VOGEL, mouse virulent labeled as EC-1 in Tables 1, 2 and 3;

[3] = test system: Pseudomonas aeruginosa UI-18: Wild-type (PA-7); test: MIC determination (CLSI), PA-7; conditions: for MIC: Pseudomonas aeruginosa, Table 3, read-out: PA-7 MIC
Experimental: as §1, §2
1) Pseudomonas aeruginosa UI-18: Wild-type, labeled as PA-7 in Tables 1, 2 and 3;

[4] = test system: Klebsiella pneumoniae: Ciprofloxacin-resistant isolate, ESBL, clinical isolate (KP-3700); test: MIC determination (CLSI), KP-3700
Experimental: as §1, §2
4) Klebsiella pneumoniae: Ciprofloxacin-resistant isolate, expresses extended-spectrum beta-lactamases (ESBL), clinical isolate, labeled as KP-3700 in Tables 1, 2, and 3.

[5] = Acinetobacter baumanii/haemolyticus multidrug-resistant clinical isolate AB-3167
[6] = Escherichia coli EC-1 VOGEL, mouse virulent
[7] = Pseudomonas aeruginosa UI-18 wild-type PA-7
[8] = Acinetobacter baumanii/haemolyticus AB-3167
[9] = Pseudomonas aeruginosa UI-18 (PA-7)

Structure (SMILES)	AB-3167 MIC [1, 5]	EC-1 MIC [2, 6]	PA-7 MIC [3, 7]	KP-3700 MIC [4]	MIC [1] [µg/mL]	MIC [2] [µg/mL]	MIC [3] [µg/mL]	AB-3167 MIC [1, 8]	EC-1 MIC ([2]; Escherichia coli EC-1) [mg/L]	PA-7 MIC [3, 9] [mg/L]
CC(CCc1ccc(-c2ccc(CC#N)cc2)cc1)(C(=O)NO)S(C)(=O)=O (stereo not drawn) [Example 106]	≧64 mg/L	2 mg/L	1 mg/L	8 mg/L						
COc1ccc(-c2ccc(CCC(C)(C(=O)NO)S(C)(=O)=O)cc2)cc1 (racemic) [Example 55]	16 mg/L	0.5 mg/L	0.5 mg/L	2 mg/L						
CC(CCc1ccc(-c2ccc(OCCO)cc2F)cc1)(C(=O)NO)S(C)(=O)=O (stereo not drawn) [Example 144]	≧64 mg/L	1 mg/L	1 mg/L	4 mg/L						
CC(C)CCCOc1ccc(CCC(C)(C(=O)NO)S(C)(=O)=O)cc1 (stereo not drawn) [Example 267, N-hydroxy-2-methyl-4-{4-[(4-methylpentyl)oxy]phenyl}-2-(methylsulfonyl)butanamide]				≧64 mg/L	8 (≈ 21.5 µM)	8 (≈ 21.5 µM)	16 (≈ 43.1 µM)			
CC(CCc1ccc(-c2cccc(CO)c2)cc1)(C(=O)NO)S(C)(=O)=O (racemic) [Example 84]	≧64 mg/L	≧64 mg/L	16 mg/L	≧64 mg/L						
CC(CCc1ccc(OCCCOCc2ccccc2)cc1)(C(=O)NO)S(C)(=O)=O (stereo not drawn) [Example 243, 4-{4-[3-(benzyloxy)propoxy]phenyl}-N-hydroxy-2-methyl-2-(methylsulfonyl)butanamide]				≧64 mg/L	32 (≈ 73.5 µM)	32 (≈ 73.5 µM)	≥ 64			
CC(CCc1ccc(OCc2cccc(F)c2)cc1)(C(=O)NO)S(C)(=O)=O (stereo not drawn) [Example 268, 4-{4-[(3-fluorobenzyl)oxy]phenyl}-N-hydroxy-2-methyl-2-(methylsulfonyl)butanamide]				8 mg/L	16 (≈ 40.5 µM)	2 (≈ 5.06 µM)	8 (≈ 20.2 µM)			
CC(CCc1ccc(OCc2cccc(Cl)c2)cc1)(C(=O)NO)S(C)(=O)=O (stereo not drawn) [Example 250, 4-{4-[(3-chlorobenzyl)oxy]phenyl}-N-hydroxy-2-methyl-2-(methylsulfonyl)butanamide]				8 mg/L	4 (≈ 9.71 µM)	2 (≈ 4.86 µM)	4 (≈ 9.71 µM)			
CC(CCc1ccc(OCC2CCC2)cc1)(C(=O)NO)S(C)(=O)=O (stereo not drawn) [Example 266, 4-[4-(cyclobutylmethoxy)phenyl]-N-hydroxy-2-methyl-2-(methylsulfonyl)butanamide]				≧64 mg/L	32 (≈ 90 µM)	32 (≈ 90 µM)	16 (≈ 45 µM)			
CC(CCc1ccc(-c2ccc(CCO)cc2F)cc1)(C(=O)NO)S(C)(=O)=O (stereo not drawn) [Example 155]	≧64 mg/L	2 mg/L	1 mg/L	8 mg/L						
COc1ccc(-c2ccc(CCC(C)(C(=O)NO)S(C)(=O)=O)cn2)cc1 (stereo not drawn) [Example 120]	≧64 mg/L	4 mg/L	8 mg/L	16 mg/L						
COc1cccc(-c2ccc(CCC(C)(C(=O)NO)S(C)(=O)=O)cc2)c1F (racemic) [Example 89]	16 mg/L	0.5 mg/L	0.5 mg/L	1 mg/L						
CC(CCc1ccc(-c2ccc(C#N)cn2)cc1)(C(=O)NO)S(C)(=O)=O (stereo not drawn) [Example 129]	≧64 mg/L	16 mg/L	4 mg/L	≧64 mg/L						
CC(C)(O)Cc1ccc(-c2ccc(CCC(C)(C(=O)NO)S(C)(=O)=O)cc2)cc1 (stereo not drawn) [Example 146]	≧64 mg/L	8 mg/L	8 mg/L	32 mg/L						
COc1ccc(OC)c(-c2ccc(CCC(C)(C(=O)NO)S(C)(=O)=O)cc2)c1 (stereo not drawn) [Example 48]	16 mg/L	16 mg/L	≧64 mg/L	≧64 mg/L						
C[C@@](CCc1ccc(-c2cc3ccccc3o2)cc1)(C(=O)NO)S(C)(=O)=O [Example 214]				4 mg/L				8 mg/L	0.125	8
CC(CCc1ccc(OCc2nc(C3CCCC3)no2)cc1)(C(=O)NO)S(C)(=O)=O (stereo not drawn) [Example 273, 4-{4-[(3-cyclopentyl-1,2,4-oxadiazol-5-yl)methoxy]phenyl}-N-hydroxy-2-methyl-2-(methylsulfonyl)butanamide]				32 mg/L	≥ 64	16 (≈ 36.6 µM)	≥ 64			

Structure (SMILES)	AB-3167 MIC [1, 5]	EC-1 MIC [2, 6]	PA-7 MIC [3, 7]	KP-3700 MIC [4]	MIC [1] [µg/mL]	MIC [2] [µg/mL]	MIC [3] [µg/mL]	AB-3167 MIC [1, 8]	EC-1 MIC ([2]; Escherichia coli EC-1) [mg/L]	PA-7 MIC [3, 9] [mg/L]
CC(CCc1ccc(-c2ccc(OCCO)c(C#N)c2)cc1)(C(=O)NO)S(C)(=O)=O (stereo not drawn) [Example 148]	≧64 mg/L	16 mg/L	16 mg/L	≧64 mg/L						
CC(CCc1ccc(-c2c(F)cccc2F)cc1)(C(=O)NO)S(C)(=O)=O (racemic) [Example 54]	16 mg/L	4 mg/L	1 mg/L	16 mg/L						
Cn1cc(-c2ccc(CCC(C)(C(=O)NO)S(C)(=O)=O)cc2)cn1 (stereo not drawn) [Example 101]	≧64 mg/L	32 mg/L	8 mg/L	32 mg/L						
C[C@@](CCc1ccc(-c2ccc(F)cc2)cc1)(C(=O)NO)S(C)(=O)=O [Example 110]	8 mg/L	2 mg/L	0.25 mg/L	4 mg/L						
CC(CCc1ccc(-c2ccc(CCN)cc2)cc1)(C(=O)NO)S(C)(=O)=O (stereo not drawn) [Example 114]	≧64 mg/L	≧64 mg/L	16 mg/L	≧64 mg/L						
CC(CCc1ccc(OCc2ccc(F)cc2C(F)(F)F)cc1)(C(=O)NO)S(C)(=O)=O (stereo not drawn) [Example 249, 4-(4-{[4-fluoro-2-(trifluoromethyl)benzyl]oxy}phenyl)-N-hydroxy-2-methyl-2-(methylsulfonyl)butanamide]				≧64 mg/L	16 (≈ 34.5 µM)	16 (≈ 34.5 µM)	16 (≈ 34.5 µM)			
CC(CCc1ccc(-c2ccco2)cc1)(C(=O)NO)S(C)(=O)=O (stereo not drawn) [Example 103]	32 mg/L	8 mg/L	4 mg/L	16 mg/L						
CC(CCc1ccc(-c2ccccc2O)nc1)(C(=O)NO)S(C)(=O)=O (stereo not drawn) [Example 143]	≧64 mg/L	4 mg/L	4 mg/L	32 mg/L						
CN(C)c1ccc(-c2ccc(CCC(C)(C(=O)NO)S(C)(=O)=O)cc2)cn1 (stereo not drawn) [Example 35]	≧64 mg/L	4 mg/L	32 mg/L	16 mg/L						
Cc1ccc(-c2noc(COc3ccc(CCC(C)(C(=O)NO)S(C)(=O)=O)cc3)n2)cc1 (stereo not drawn) [Example 269, N-hydroxy-2-methyl-4-(4-{[3-(4-methylphenyl)-1,2,4-oxadiazol-5-yl]methoxy}phenyl)-2-(methylsulfonyl)butanamide]				≧64 mg/L	≥ 64	4 (≈ 8.7 µM)	≥ 64			
CC(CCc1ccc(-c2ccccc2C#N)cc1)(C(=O)NO)S(C)(=O)=O (stereo not drawn) [Example 105]	≧64 mg/L	8 mg/L	16 mg/L	32 mg/L						
Cc1csc(-c2ccc(CCC(C)(C(=O)NO)S(C)(=O)=O)cc2)c1 (stereo not drawn) [Example 46]	≧64 mg/L	2 mg/L	2 mg/L	4 mg/L						
COc1ccc(-c2ccc(CCC(C)(C(=O)NO)S(C)(=O)=O)cc2)cc1F (racemic) [Example 66]	16 mg/L	1 mg/L	1 mg/L	8 mg/L						
CSc1ccc(-c2ccc(CCC(C)(C(=O)NO)S(C)(=O)=O)cn2)cc1 (stereo not drawn) [Example 121]	≧64 mg/L	1 mg/L	4 mg/L	4 mg/L						
CC(C)(O)c1ccc(-c2ccc(CCC(C)(C(=O)NO)S(C)(=O)=O)cc2)cc1 (stereo not drawn) [Example 230]				32 mg/L				≧64 mg/L	8	8
CC(CCc1ccc(-c2ccc(OCCCN)cc2)cc1)(C(=O)NO)S(C)(=O)=O (stereo not drawn) [Example 117]	≧64 mg/L	≧64 mg/L	8 mg/L	≧64 mg/L						
